system: P. falciparum stage V gametocytes; assay: Gametocytocidal ATP bioluminescence assay (single point 5 μM and 1 μM, dose-response); assay type: cell-based, Plasmodium falciparum; conditions: P. falciparum gametocytes, 5 μM single concentration, 48 h, decrease of ATP level (S1 Table)
Experimental: Purified stage IV-V gametocytes were obtained as previously described [10]. Single point ATP bioluminescence assay and dose–response of positive hits was determined in accordance with the previously published protocol [10].

In order of rising “% Inhibition” value:
1. O=C(Nc1ccc(CN2CCC(c3c[nH]c4ccc(O)cc34)CC2)cc1)c1ccc(-c2ccccc2)cc1 [TCMDC-139068]  -139%
2. Cc1cccc(CN2CCCN(Cc3cccc(C(=O)Nc4ccc(C(C)(C)C)cc4)c3)CC2)c1 [TCMDC-135984]  -91%
3. C1=C(c2c[nH]c3ccccc23)CCN(Cc2ccccc2)C1 [TCMDC-123457]  -71%
4. CCCCCCNC(=O)C1Cc2c([nH]c3ccccc23)C2(CCN(CCc3ccccc3)CC2)N1 (stereo not shown) [TCMDC-141085]  -58%
5. COc1cc(C(=O)NC2CCN(Cc3ccccc3)CC2)ccc1-c1nc2cc(Cl)c(Cl)cc2[nH]1 [TCMDC-140078]  -56%
6. COc1ccc(Cl)cc1NC(=O)Nc1cc(C)nc2ccccc12 [TCMDC-125497]  -50%
7. Cc1nc(C)c(CC(=O)Nc2ccc(-c3cccc(-c4nc5ccc(C(F)(F)F)cc5[nH]4)c3)cc2)s1 [TCMDC-136996]  -50%
8. CCc1ccc(NC(=O)c2cccc(CN3CCCN(CC4CCCCC4)CC3)c2)cc1 [TCMDC-135988]  -39%
9. CC(C)(C)c1ccc(NC(=O)c2cccc(CN3CCCN(Cc4ccc(F)cc4)CC3)c2)cc1 [TCMDC-135985]  -30%
10. COc1cc2ncnc(Nc3ccc(OCc4ccccc4)c(I)c3)c2cc1OC [TCMDC-131944]  -25%
11. Cc1ccnc2nc(C(=O)Nc3cc(C(F)(F)F)ccc3N3CCCCC3)nn12 [TCMDC-124492]  -24%
12. Cc1cccc2nc(-c3cccc(-c4ccc(NC(=O)Cc5ccc[n+]([O-])c5)cc4)c3)[nH]c12 [TCMDC-136993]  -16%
13. Cc1ccc(Oc2ncccc2C(=O)Nc2cccc3cccnc23)c(C)c1 [TCMDC-125499]  -13%
14. CC(=O)Nc1ccc(CN2CCC(N(C)c3cc(NC(=O)c4cccs4)ccn3)CC2)cc1 [TCMDC-134971]  -7%
15. CN(Cc1cccc(C#N)c1)C1CCN(c2cc(NC(=O)c3ccc(F)cc3)ccn2)CC1 [TCMDC-134974]  -6%
16. CCOc1ccc(NC(=O)c2cccc(CN3CCCN(Cc4cccc(O)c4)CC3)c2)cc1 [TCMDC-135987]  -5%
17. Cc1cccc(C(=O)Nc2ccnc(N3CCC(N(C)Cc4cccc(C#N)c4)CC3)c2)c1 [TCMDC-134973]  -4.57%
18. COc1cc(Cc2cnc(N)nc2N)cc(OCCCC#N)c1OC [TCMDC-138040]  -4.21%
19. C=CCOc1cc(Cc2cnc(N)nc2N)cc(OC)c1OC [TCMDC-138042]  -4%
20. COc1cc(Cc2cnc(N)nc2N)c2c(c1OC)OC(C)(C)C=C2 [TCMDC-138038]  -2.79%
21. Cc1cc(NC(=O)c2cccs2)ccc1OC1CCN(Cc2ccccc2)C1 (stereo not shown) [TCMDC-133968]  -2.76%
22. OC(CN1CCN(c2cccc(Cl)c2)CC1)C(c1ccccc1)c1ccccc1 (stereo not shown) [TCMDC-123456]  0.238%
23. COc1cc2nc(C)nc(Nc3ccc(Cc4ccccc4)cc3)c2cc1OC [TCMDC-131941]  1.46%
24. O=C(NCCCN1CCN(c2cccc(Cl)c2)CC1)c1ccc(-c2nc3cc(Cl)c(Cl)cc3[nH]2)cc1 [TCMDC-140077]  1.64%
25. Clc1ccc(-c2nc3ccc(-c4ccc5nc(-c6ccc(Cl)cc6)[nH]c5c4)cc3[nH]2)cc1 [TCMDC-123460]  1.65%
26. COC(=O)CCCCOc1cc(Cc2cnc(N)nc2N)cc(OC)c1OC [TCMDC-138041]  2%
27. Nc1ccnc2ccc(NC(=O)CCCCCc3ccccc3)cc12 [TCMDC-139070]  2%
28. COc1cc(C(=O)NCCCN2CCN(c3cc(Cl)ccc3OC)CC2)ccc1-c1nc2cc(Cl)c(Cl)cc2[nH]1 [TCMDC-140079]  4.42%
29. Cc1nc(C)c(CC(=O)Nc2cccc(-c3cccc(-c4nc5ccc(C(F)(F)F)cc5[nH]4)c3)c2)s1 [TCMDC-136995]  4.51%
30. COc1ccc(CN2CCCN(Cc3cccc(C(=O)Nc4ccc(C(C)(C)C)cc4)c3)CC2)cc1 [TCMDC-135986]  5.59%
31. Clc1ccc2c(NCCc3ccccn3)ccnc2c1 [TCMDC-123461]  8%
32. Ic1cc(Nc2ncnc3ccsc23)ccc1OCc1ccccc1 [TCMDC-131945]  8%
33. COc1ccc2[nH]cc(C3CCN(Cc4ccc(NC(=O)c5ccc(-c6ccccc6)cc5)cc4)CC3)c2c1 [TCMDC-139069]  8%
34. Nc1nc(N)c2c(Sc3ccccc3)cccc2n1 [TCMDC-131943]  9%
35. COc1ccc2nccc([C@@H](O)CN3CCC(NCc4ccc5scnc5c4)CC3)c2c1 [TCMDC-141081]  10%
36. Cc1cc(NC(=O)c2ccco2)ccc1OC1CCN(Cc2ccccc2)CC1 [TCMDC-133965]  12%
37. Nc1nc(N)c2c(ccc3ccccc32)n1 [TCMDC-131942]  19%
38. O=C(Nc1ccc(OC2CCN(Cc3ccccc3)CC2)c(Cl)c1)c1ccc(F)cc1 [TCMDC-133967]  19%
39. CO/C(=C\C=C\c1cc2cc(Cl)c(Cl)cc2[nH]1)C(=O)NC1CC2CCCC(C1)N2C (stereo not shown) [TCMDC-139067]  19%
40. CN(Cc1cccc(C#N)c1)C1CCN(c2cc(NC(=O)c3cccc(F)c3)ccn2)CC1 [TCMDC-134972]  21%
41. CN(CC(=O)Nc1ccc(F)c(F)c1F)c1ncnc2sc(-c3ccccc3)cc12 [TCMDC-124491]  23%
42. C=CCc1cc(Cc2cnc(N)nc2N)cc(CCC)c1OC [TCMDC-138039]  23%
43. Cc1cccc(CN2CCC(Oc3ccc(NC(=O)c4cccs4)cc3Cl)CC2)n1 [TCMDC-133964]  24%
44. Cc1cccc2nc(-c3cccc(-c4cccc(NC(=O)Cc5ccc[n+]([O-])c5)c4)c3)[nH]c12 [TCMDC-136992]  25%
45. CC(CN1CCN(CC(c2ccc(F)cc2)N2CCN(C)CC2)CC1)C(=O)c1ccc(O)cc1.O=C(O)/C=C\C(=O)O (stereo not shown) [TCMDC-125496]  30%
46. COc1ccc2nccc([C@@H](O)CN3CCC(NCc4nc5c(OCc6ccccc6)cccc5[nH]4)CC3)c2c1 [TCMDC-141083]  34%
47. COc1ccc(NC2=C(c3ccccc3)C(=O)c3ccccc32)cn1 [TCMDC-125501]  37%
48. Cc1cc(NC(=O)Nc2ccc3nc(C)oc3c2)c2cc(Cl)ccc2n1 [TCMDC-140076]  38%
49. CN(c1cc(NC(=O)c2cccs2)ccn1)C1CCN(Cc2cccc(C#N)c2)CC1 [TCMDC-134970]  40%
50. N#Cc1c(N2CCN(c3ccc(F)cc3)CC2)nc(N)c2c(N)nc3c(c12)CC(=O)N3C1CC1 [TCMDC-124490]  44%
51. N=C(N)c1ccc(-c2cc3ccc(C(=N)N)cc3[nH]2)cc1 [TCMDC-123458]  53%
52. CC1CCN(C(=O)C(Cc2c[nH]c3ccccc23)NS(=O)(=O)c2ccc(Cl)cc2)CC1 (stereo not shown) [TCMDC-124494]  54%
53. CC(=O)c1c(C)[nH]c(C(=O)Nc2ccc(-c3nc4ccc(C)cc4s3)cc2)c1C [TCMDC-124493]  55%
54. O=C(Nc1ccc(OC2CCN(Cc3ccccc3)CC2)c(Cl)c1)c1ccco1 [TCMDC-133966]  63%
55. O=C1C(c2ccccc2)=C(Nc2cccc(OC(F)(F)C(F)F)c2)c2ccccc21 [TCMDC-125498]  66%
56. CC(C)NC(C)(C)CN(Cc1ccc(-c2ccc(C(F)(F)F)cc2)cc1)C(=O)Cn1c(CCc2cccc(F)c2F)nc(=O)c2ccccc21 [TCMDC-141084]  72%
57. CNC(=O)c1cc(NCCCNCc2ccc(Cl)c(C(F)(F)F)c2)nc2ccccc12 [TCMDC-141082]  73%
58. CNc1c2c(nc3ccc(NC(=O)CCCCCCc4ccccc4)cc13)CCCC2 [TCMDC-139066]  79%
59. O=C(/C=C/c1ccc(Cl)c(Cl)c1)N1CCC(CCN2CCC(c3c[nH]c4ccncc34)CC2)CC1 [TCMDC-140075]  91%

same assay, conditions: P. falciparum gametocytes; average; read-out: IC50 Pf Gametocytes average, IC50 (µM) average

For `CCN(CC)/C(=N/C(=N)NCc1ccc(Cl)cc1Cl)NCCCCCCN/C(=N\C(=N)NCc1ccc(Cl)cc1Cl)N(CC)CC` [TCMDC-131819], the IC50 was 0.3 µM.

same assay, conditions: Plasmodium falciparum; P. falciparum gametocytes, 5 μM single concentration, 48 h, decrease of ATP level (S1 Table)

In order of rising inhibition at 5 µM:
1. c1ccc(-n2ncc(CNCc3ccc(-c4ccc(-c5nc6ccccc6[nH]5)s4)cc3)n2)cc1 [TCMDC-132962]  1%
2. COC(=O)c1cccc(CNCc2cccc(-c3cccc(-c4nc5cc(F)ccc5[nH]4)c3)c2)c1 [TCMDC-132960]  6%
3. Cc1nc(C)c(CC(=O)Nc2ccc(-c3ccc(-c4nc5cc(C(F)(F)F)ccc5[nH]4)s3)cc2)s1 [TCMDC-136994]  7%
4. Cc1cccc2nc(-c3cccc(-c4cccc(CNCc5cnn(-c6ccccc6)n5)c4)c3)[nH]c12 [TCMDC-132963]  8%
5. FC(F)(F)c1ccc2[nH]c(-c3cccc(-c4ccc(CNCc5cnn(-c6ccccc6)n5)cc4)c3)nc2c1 [TCMDC-132964]  25%
6. COC(=O)c1cccc(CNCc2cccc(-c3cccc(-c4nc5ccccc5[nH]4)c3)c2)c1 [TCMDC-132961]  33%

same assay, conditions: Plasmodium falciparum; gametocytes, primary screen at 5 μM (S9 Table, CSA analogs)

In order of rising inhibition at 5 µM:
1. c1ccc2[nH]c(-c3ccc(-c4ccc(CNC5CC5)cc4)s3)nc2c1 [TCMDC-132675]  -17.6%
2. CC(C)CN(C)Cc1ccc(-c2ccc(-c3nc4ccccc4[nH]3)s2)cc1 [TCMDC-136786]  -17.4%
3. CN(C)CCNCc1ccc(-c2ccc(-c3nc4ccccc4[nH]3)s2)cc1 [TCMDC-132683]  58.1%
4. CNCCNCc1ccc(-c2ccc(-c3nc4ccccc4[nH]3)s2)cc1 [TCMDC-132824]  82.1%

same assay, conditions: gametocytes, primary screen at 5 μM (S10 Table, MCSI analogs)

In order of falling “%_Inh” value:
1. Cc1cccc2nc(-c3ccc(-c4cccc(CNCc5ccc(CN)cc5)c4)s3)[nH]c12.O=C(O)C(F)(F)F [TCMDC-132812]  115.306%
2. Cc1cccc2nc(-c3ccc(-c4ccc(CN5CCN(C6CCN(C)CC6)CC5)cc4)s3)[nH]c12 [TCMDC-133866]  106.989%

system: P. falciparum asexual stages; assay: not given; conditions: asexual stages; TCAMS data; read-out: IC50 asexual; cited from earlier work

In the case of `CCN(CC)/C(=N/C(=N)NCc1ccc(Cl)cc1Cl)NCCCCCCN/C(=N\C(=N)NCc1ccc(Cl)cc1Cl)N(CC)CC` [TCMDC-131819], the IC50 is listed as 218 nM.

Source: PMC4552634, “A New Set of Chemical Starting Points with Plasmodium falciparum Transmission-Blocking Potential for Antimalarial Drug Discovery” (PLoS ONE, 2015)
